Structures are written as SMILES. Where two headings read alike, the source gives them in different places.

Data on twelve molecules can be found in publication PMC6480966, “Synthesis, In Silico, and In Vitro Evaluation of Anti-Leishmanial Activity of Oxadiazoles and Indolizine Containing Compounds Flagged against Anti-Targets” (Molecules, 2019).

Data set [1] deals with Leishmania donovani LV9 axenic amastigotes. Nature of the data set: In vitro anti-leishmanial testing on axenic amastigotes (resazurin). Format: cell-based. Particulars: then resazurin 24 h. On the procedure: (§1) Leishmania donovani promastigotes (MHOM/ET/67/HU3/LV9) were cultured with 5% CO2 in M199 complete medium containing M199 medium supplemented with 100 μM adenosine, 0.5 mg/L hemin, 40 mM Hepes pH 7.4 and 10% heat inactivated fetal bovine serum (HIFBS) in the dark at 26 °C. Late log promastigotes diluted at 1 × 10^6/mL in M199 complete medium acidified at pH 5.5 and cultured at 37 °C with 5% CO2 provided the cultures of axenic amastigotes of L. donovani.
Previously described protocols were adapted for evaluation of compounds on L. donovani. For axenic amastigotes, two-fold serial dilutions of the compounds were done in 96-well microplates with 100 μL of complete medium (see above). Axenic amastigotes were then added to each well at a density of […] in a 200 μL final volume. After 72 h of incubation with 5% CO2 at 37 °C, 20 μL of resazurin (450 μM) was added to each well and further incubated with 5% CO2 at 37 °C for 24 h in the dark. Resazurin is reduced to resorufin in living cells and can be then monitored by measuring OD570nm (resorufin) and OD600nm (resazurin; Lab systems Multiskan MS). Compound activity was expressed as IC50 (µM). The drug used for reference was Amphotericin B (AmB).

Data set [2] in a line: Cytotoxicity test on macrophages (resazurin). The format is cell-based. Particulars: mouse, RAW 264.7 macrophages, 48 h incubation. On the procedure:
(§2) RAW 264.7 macrophages were grown with 5% CO2 in DMEM complete medium containing Dulbecco’s Modified Eagle’s Medium (DMEM) with 100 U/mL penicillin-streptomycin, and 10% HIFBS at 37 °C.
(§3) RAW 264.7 macrophages were used for cytotoxicity testing. Cells were plated in 96-well microplates at a density of 2 × 10^4 cells per well. Twenty-four hours of incubation with 5% CO2 at 37 °C followed, and then the medium was removed and to each well, 100 μL of DMEM complete medium containing two-fold serial dilutions of the compounds were added. This was followed by 48 h of incubation with 5% CO2 at 37 °C, after which 10 μL of resazurin (450 μM) was added to each well, and further incubated with 5% CO2, in the dark for 4 h at 37 °C. Cell viability was then monitored as above. Compound cytotoxicity was expressed as CC50 (Cytotoxic Concentration 50%: concentration inhibiting the macrophages growth by 50%).

Data set [3] deals with Leishmania donovani LV9 intramacrophage amastigotes. Nature of the data set: In vitro anti-leishmanial testing on intramacrophage amastigotes (RAW 264.7, Sybr Green I). The format is cell-based. Particulars: for SI = CC50/IC50 Intramacro. Amas.: CC50 RAW 264.7 / IC50 intramacrophage amastigotes; for IC50: Leishmania donovani, RAW264.7, RAW 264.7 macrophages, 48 h treatment. On the procedure: as §1, §2
For intramacrophage amastigote testing, RAW 264.7 macrophages were incubated with 5% CO2 at 37 °C for 24 h after being plated in 96-well microplates at a density of 2 × 10^4 cells per well. Axenic amastigotes were differentiated as described above, centrifuged at 2000 g for 10 min, re-suspended in DMEM complete medium, and added to each well to reach a 16:1 parasite to macrophage ratio. 24 h of infection with 5% CO2 at 37 °C proceeded, and extracellular parasites were removed. This was followed by addition to each well of DMEM complete medium (100 μL) containing two-fold serial dilutions of the compounds from a maximal concentration of 100 μM. The medium was removed following treatment of 48 h and replaced by Direct PCR Lysis Reagent (100 μL; Euromedex) before 3 freeze-thaw cycles at room temperature, addition of 50 μg/mL proteinase K, and a final incubation at 55 °C overnight to allow cell lysis. 10 μL of each cell extract was then added to 40 μL of Direct PCR Lysis reagent containing Sybr Green I (0.05%; Invitrogen). Mastercycler® realplex (Eppendorf) was used to monitor DNA fluorescence. Compound activity was expressed as IC50 (µM). The drug used for reference was Amphotericin B (AmB).

Data set [4] concerns Leishmania donovani LV9 axenic amastigotes. Description: In vitro anti-leishmanial testing on axenic amastigotes (resazurin). Format: cell-based. Conditions: against Leishmania axenic amastigotes (as worded). A general note: The colour change of resazurin is a common sign of viable cells or microbes.
Data set [5] relates to RAW 264.7 macrophages. Description: Cytotoxicity test on macrophages (resazurin). Format: cell-based. Conditions: as defined. On the procedure: as §2, §3
In data set [6] the test system is Leishmania. More on the design: method as in PMID 18353643. Particulars: read-out: IC50 of reference drug miltefosine; cited from earlier work.
Setting [7] is: Table 2, 72 h incubation, read-out: Leishmania donovani LV9 axenic Amastigotes Forms IC50 ± SD.
[8] abbreviates: Table 2, read-out: Toxicity on RAW 264.7 Macrophages CC50 ± SD.
[9] abbreviates: Table 2, read-out: Leishmania donovani Intramacrophage Amastigotes Forms IC50 ± SD.
[10] abbreviates: Table 3, read-out: Leishmania donovani LV9 Intramacrophage Amastigotes IC50 ± SD.

What is called IC50 is the concentration at which inhibition is half-maximal. As usually defined, the CC50 is the concentration that lowers cell viability or growth by half. Broadly, the melting point is the temperature, or range, at which the solid turns liquid. Take `COCc1nc(-c2ccc3c(c2)OCO3)no1` [Compound 8]: the melting point was 56 to 57 °C. Moreover, the IC50 in data set [1] (setting [7]) was determined as 59.9 ± 6.45 µM. In data set [2] (setting [8]), the CC50 at 48 h is > 100 µM. For the same molecule, in data set [3], the “SI = CC50/IC50 Intramacro. Amas.” value is given as >1.9. In data set [3] (setting [9]), the IC50 amounted to 51.3 ± 4.35 µM.

The molecule `Cc1csc(C=NNC(=O)c2ccco2)n1` [Compound 1, N’-[(4-Methyl-2-thiazolyl)methylene]furan-2-carbohydrazide] showed a melting point of 121 to 124 °C. Moreover, in data set [1] (setting [7]), the IC50 came out at 11.9 ± 1.87 µM. Further, in data set [2] (setting [8]), the CC50 at 48 h came out at 13.9 ± 2.11 µM. In addition, the “SI = CC50/IC50 Intramacro. Amas.” value in data set [3] worked out at 2.2. For the same molecule, in data set [3] (setting [9]), the IC50 stood at 6.25 ± 1.89 µM.

For `O=C(NN=Cc1ccc(Br)s1)c1cccs1` [Compound 2, N’-[(5-Bromo-2-thiophenyl)methylene]thiophene-2-carbohydrazide], the IC50 is 1.09 ± 0.12 µM in data set [1] (setting [7]), 2.18 ± 0.01 µM in data set [3] (setting [9]) and < 5 µM in data set [3] (setting [10]). The “selectivity index (SI)” value in data set [4] is on record as 2. Besides, in data set [2] (setting [8]), the CC50 at 48 h worked out at 4.87 ± 0.39 µM. The “selectivity index (SI, CC50 for macrophage/IC50 for promastigotes)” value in data set [5] is listed as ≥ 2. The “SI = CC50/IC50 Intramacro. Amas.” value in data set [3] was found to be 2.2.

As for `CCCCCCCCCCCCCCCCOP(=O)([O-])OCC[N+](C)(C)C` [miltefosine], in data set [6], the concentration for half-maximal inhibition (IC50) was 0.31 µM.

On to `C[C@@H]1[C@H](O)[C@@H](C)/C=C/C=C/C=C/C=C/C=C/C=C/C=C/[C@H](O[C@@H]2O[C@H](C)[C@@H](O)[C@H](N)[C@@H]2O)C[C@@H]2O[C@](O)(C[C@@H](O)C[C@@H](O)[C@H](O)CC[C@@H](O)C[C@@H](O)CC(=O)O[C@H]1C)C[C@H](O)[C@H]2C(=O)O` [AmB, Amphotericin B, reference compound], for which the IC50 in data set [1] (Table 3, 72 h incubation, read-out: Leishmania donovani LV9 Axenic Amastigotes IC50 ± SD) was 0.2 ± 0.08 µM; in data set [3] (setting [10]) it was 0.11 ± 0.09 µM. Further, in data set [2] (Table 3, read-out: Cytotoxicity on RAW 264.7 Macrophages CC50 ± SD), the CC50 at 48 h is 5.36 ± 0.52 µM. In data set [3], the “SI = CC50/IC50 Intramacro. Amas.” value stood at 48.7.

Turning to `COC(=O)c1cc(-c2nc3cc([N+](=O)[O-])ccc3[nH]2)n2ccc3ccccc3c12` [Compound 13, Methyl 3-(5-nitro-1H-benzo[d]imidazol-2-yl)pyrrolo[2,1-a]isoquinoline-1-carboxylate], the melting point is 280 °C.

As for `NC(=NO)c1cccc([N+](=O)[O-])c1` [Compound 7, 3-Nitrobenzamidoxime], the melting point was in the range of 182 to 184 °C. Also, the IC50 in data set [1] (setting [7]) is 51.2 ± 4.98 µM. Further, the CC50 at 48 h in data set [2] (setting [8]) is > 100 µM. Also, in data set [3], the “SI = CC50/IC50 Intramacro. Amas.” value is listed as >2.1. Also, the IC50 in data set [3] (setting [9]) was 47.2 ± 3.12 µM.

`COC(=O)c1c(C(=O)OC)c2ccccn2c1-c1nc2cc([N+](=O)[O-])ccc2[nH]1` [Compound 11, Dimethyl 3-(5-nitro-1H-benzo[d]imidazol-2-yl)indolizine-1,2-dicarboxylate] had a melting point of 234 °C.

Consider `COC(=O)c1c(C(=O)OC)c2c3ccccc3ccn2c1-c1nc2cc([N+](=O)[O-])ccc2[nH]1` [Compound 12, Dimethyl 3-(5-nitro-1H-benzo[d]imidazol-2-yl)pyrrolo[2,1-a]isoquinoline-1,2-dicarboxylate], for which the melting point was 162 °C. Besides, the IC50 in data set [1] (setting [7]) is > 100 µM. In addition, in data set [2] (setting [8]), the 50% cytotoxic concentration (CC50) at 48 h is > 100 µM. Also, in data set [3] (setting [9]), the half-inhibitory concentration (IC50) is > 100 µM.

Molecule `O=C(NN=Cc1nc2ccccc2s1)c1ccncc1` [Compound 5, N’-[(2-Benzothiazolyl)methylene]pyridine-4-carbohydrazide] gave a melting point of 234 to 237 °C. Also, the 50% inhibitory concentration (IC50) in data set [1] (setting [7]) came out at 61.5 ± 5.99 µM. The CC50 at 48 h in data set [2] (setting [8]) is > 100 µM. For the same molecule, in data set [3], the “SI = CC50/IC50 Intramacro. Amas.” value was >1.8. Also, the half-maximal inhibitory concentration (IC50) in data set [3] (setting [9]) was 55.2 ± 4.77 µM.

Consider `O=C(NN=Cc1ccc(Br)s1)c1ccco1` [Compound 3, N’-[(5-Bromo-2-thiophenyl)methylene]furan-2-carbohydrazide], for which the melting point is 201 to 202 °C. Also, the half-maximal inhibitory concentration (IC50) in data set [1] (setting [7]) is > 100 µM. Moreover, in data set [2] (setting [8]), the CC50 at 48 h is > 100 µM. Besides, in data set [3] (setting [9]), the 50% inhibitory concentration (IC50) is > 100 µM.

In turn, `O=C(NN=Cc1nc2ccccc2s1)c1cccs1` [Compound 4, N’-[(2-Benzothiazolyl)methylene]thiophene-2-carbohydrazide] had a melting point of 231 to 234 °C. Further, in data set [1] (setting [7]), the IC50 was determined as 12.5 ± 0.61 µM. The half-maximal cytotoxic concentration (CC50) at 48 h in data set [2] (setting [8]) was determined as 16.3 ± 1.42 µM. In addition, the “SI = CC50/IC50 Intramacro. Amas.” value in data set [3] was found to be 1.4. Moreover, the half-inhibitory concentration (IC50) in data set [3] (setting [9]) was determined as 11.2 ± 0.62 µM.
